Results as given in ChEMBL document CHEMBL1201862, “PubChem BioAssay data set” (2004).
The source made the active and inactive calls. Rule as the data show it: actives have a measured IC50 and inactives only a lower limit.

What was measured:
Assay type in all cases: functional
[1] = molecular target: T1, Caspase-3 (Homo sapiens, UniProt P42574);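 also: Dose-response selectivity test against caspase-3 for candidate inhibitors of sentrin-specific proteases (SENPs)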
T1 sequence (P42574 whole entry): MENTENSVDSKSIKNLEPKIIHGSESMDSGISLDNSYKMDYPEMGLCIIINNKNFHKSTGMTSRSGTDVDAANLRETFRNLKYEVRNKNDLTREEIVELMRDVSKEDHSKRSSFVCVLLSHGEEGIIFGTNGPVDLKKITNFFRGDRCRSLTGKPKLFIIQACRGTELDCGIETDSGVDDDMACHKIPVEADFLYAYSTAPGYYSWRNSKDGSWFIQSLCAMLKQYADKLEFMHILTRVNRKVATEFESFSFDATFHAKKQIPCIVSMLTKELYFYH

[2] = molecular target: T2, Sentrin-specific protease 6 (Homo sapiens, UniProt Q9GZR1);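 also: Luminescence-based dose-response confirmatory assay of SENP6 inhibition, following up an ultra-high-throughput screen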
T2 sequence (Q9GZR1 whole entry): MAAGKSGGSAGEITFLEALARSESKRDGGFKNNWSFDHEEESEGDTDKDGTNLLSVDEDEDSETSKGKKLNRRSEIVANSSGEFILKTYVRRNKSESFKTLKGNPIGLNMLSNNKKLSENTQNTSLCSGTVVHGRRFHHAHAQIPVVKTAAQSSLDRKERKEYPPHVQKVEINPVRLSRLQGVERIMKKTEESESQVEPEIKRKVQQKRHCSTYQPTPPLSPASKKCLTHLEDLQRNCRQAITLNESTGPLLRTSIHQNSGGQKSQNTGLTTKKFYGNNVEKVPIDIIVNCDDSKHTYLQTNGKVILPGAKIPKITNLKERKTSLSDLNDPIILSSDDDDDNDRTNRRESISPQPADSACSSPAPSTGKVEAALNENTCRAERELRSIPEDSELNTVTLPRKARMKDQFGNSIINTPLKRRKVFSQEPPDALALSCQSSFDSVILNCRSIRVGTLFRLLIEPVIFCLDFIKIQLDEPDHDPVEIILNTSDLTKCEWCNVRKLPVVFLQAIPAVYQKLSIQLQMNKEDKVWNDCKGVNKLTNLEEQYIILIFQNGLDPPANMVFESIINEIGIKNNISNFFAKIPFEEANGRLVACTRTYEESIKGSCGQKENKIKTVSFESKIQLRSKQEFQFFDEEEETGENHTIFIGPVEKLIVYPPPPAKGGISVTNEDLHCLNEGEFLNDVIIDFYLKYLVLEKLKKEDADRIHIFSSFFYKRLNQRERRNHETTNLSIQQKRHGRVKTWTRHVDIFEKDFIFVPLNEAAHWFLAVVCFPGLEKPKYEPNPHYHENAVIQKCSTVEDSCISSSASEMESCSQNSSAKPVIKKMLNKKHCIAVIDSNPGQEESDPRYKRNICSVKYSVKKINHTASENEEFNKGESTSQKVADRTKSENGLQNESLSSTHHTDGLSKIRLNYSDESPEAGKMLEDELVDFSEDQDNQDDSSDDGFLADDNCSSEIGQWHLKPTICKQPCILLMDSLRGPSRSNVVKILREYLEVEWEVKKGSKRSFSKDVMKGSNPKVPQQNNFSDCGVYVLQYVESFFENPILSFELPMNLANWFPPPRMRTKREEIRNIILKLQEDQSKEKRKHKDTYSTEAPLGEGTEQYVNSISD

[3] = molecular target: T3, Apoptotic protease-activating factor 1 (Homo sapiens, UniProt O14727)
T3 sequence (O14727 whole entry): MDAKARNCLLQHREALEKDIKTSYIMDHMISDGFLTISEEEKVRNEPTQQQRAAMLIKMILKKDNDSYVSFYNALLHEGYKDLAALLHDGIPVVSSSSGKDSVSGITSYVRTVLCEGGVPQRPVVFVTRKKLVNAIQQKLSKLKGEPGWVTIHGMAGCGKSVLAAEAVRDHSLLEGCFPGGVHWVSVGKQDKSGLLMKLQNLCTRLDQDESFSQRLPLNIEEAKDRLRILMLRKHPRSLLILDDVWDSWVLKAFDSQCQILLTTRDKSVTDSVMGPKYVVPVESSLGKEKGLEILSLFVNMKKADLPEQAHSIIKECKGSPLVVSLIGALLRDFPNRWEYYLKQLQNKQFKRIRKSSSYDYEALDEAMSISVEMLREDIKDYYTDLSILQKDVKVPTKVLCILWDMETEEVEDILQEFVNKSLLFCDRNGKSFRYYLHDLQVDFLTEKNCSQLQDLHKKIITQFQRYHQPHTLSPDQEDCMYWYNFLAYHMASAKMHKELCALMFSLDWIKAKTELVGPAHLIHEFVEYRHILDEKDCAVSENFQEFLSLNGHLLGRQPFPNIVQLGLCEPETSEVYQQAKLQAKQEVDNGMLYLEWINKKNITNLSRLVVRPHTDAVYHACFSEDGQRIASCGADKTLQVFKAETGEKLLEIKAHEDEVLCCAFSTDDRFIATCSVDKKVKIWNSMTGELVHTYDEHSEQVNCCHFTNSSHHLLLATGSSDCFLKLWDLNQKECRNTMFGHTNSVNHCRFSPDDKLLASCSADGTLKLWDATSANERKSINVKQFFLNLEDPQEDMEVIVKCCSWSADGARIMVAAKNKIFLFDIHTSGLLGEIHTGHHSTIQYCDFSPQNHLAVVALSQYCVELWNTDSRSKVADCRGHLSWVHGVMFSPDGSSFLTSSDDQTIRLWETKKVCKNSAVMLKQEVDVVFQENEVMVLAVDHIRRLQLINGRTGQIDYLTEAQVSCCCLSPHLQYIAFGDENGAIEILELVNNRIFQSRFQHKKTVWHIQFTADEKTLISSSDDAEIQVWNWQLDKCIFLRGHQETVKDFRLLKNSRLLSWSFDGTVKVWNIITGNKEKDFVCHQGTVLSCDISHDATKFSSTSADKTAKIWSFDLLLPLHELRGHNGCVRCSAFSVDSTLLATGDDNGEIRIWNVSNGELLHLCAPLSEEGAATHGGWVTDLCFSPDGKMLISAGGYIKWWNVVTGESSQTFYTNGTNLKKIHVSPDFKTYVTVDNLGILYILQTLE

Measured: IC50

O=C1C=C(Nc2ccccc2)c2ccccc2C1=O
active: [1] 18.6 µM | [2] 5.8 µM | [3] 2.23 µM

CC1OC(Nc2cccc3ccccc23)C(O)C(O)C1O (stereo unspecified)
active: [1] 9.4 µM | [2] 3.63 µM | [3] 14.8 µM
